The results in this text go back to US20250328351A1, “CARBONIC ANHYDRASE INHIBITORS AND ANTIBIOTICS AGAINST MULTIDRUG RESISTANT BACTERIA” (Purdue Research Foundation, priority 2018, published 2025).

For series [1], the system named is Mutant-5 of Enterococcus fecalis NR 31975. The series can be described thus: microbe, parasite or virus in culture. In kind it is cell-based.
The subject of series [2] is VERO cells. The series can be described thus: In vitro cytotoxicity, MTS assay. The class given is cell-based, monkey. Conditions: concentration up to 128 μg/mL; two hours incubation. The method, then: Toxicity assessment: Compounds AS005H, AS005J, AS004B, AS005K, AS005A and 005D were assayed (at concentrations of 64 and 128 μg/mL) against a fibroblast-like monkey kidney cell line (VERO cell) to determine the potential toxic effect in vitro. Briefly, cells were cultured in Minimum Essential Medium (MEM) supplemented with 10% fetal bovine serum (FBS), 1 mM sodium pyruvate, and penicillin-streptomycin at 37° C. with CO2 (5%). Control cells received DMSO alone at a concentration equal to that in drug-treated cell samples. The cells were incubated with the compounds (in triplicate) in a 96-well plate at 37° C. with CO2 (5%) for two hours. The assay reagent MTS 3-(4,5-dimethylthiazol-2-yl)-5-(3-carboxymethoxyphenyl)-2-(4-sulfophenyl)-2H-tetrazolium) (Promega, Madison, WI, USA) was subsequently added and the plate was incubated for four hours. Absorbance readings (at OD490) were taken using a kinetic microplate reader (Molecular Devices, Sunnyvale, CA, USA). The quantity of viable cells after treatment with each compound was expressed as a percentage of the viability of DMSO-treated control cells (average of triplicate wells±standard deviation). The toxicity data was analyzed via a two-way ANOVA, with post hoc Dunnet's multiple comparisons test (P<0.05), utilizing GraphPad Prism 6.0 (GraphPad Software, La Jolla, CA).
Percent viable mammalian cells (measured as average absorbance ratio (test agent relative to DMSO) for cytotoxicity analysis of compounds AS005H, AS005J, AS004B, AS005K, AS005A and 005D (tested in triplicates) at 64 and 128 μg/mL against VERO cells using the MTS 3-(4,5-dimethylthiazol-2-yl)-5-(3-carboxymethoxyphenyl)-2-(4-sulfophenyl)-2H-tetrazolium) assay. Dimethyl sulfoxide (DMSO) was used as a negative control to determine a baseline measurement for the cytotoxic impact of each compound. The absorbance values represent an average of a minimum of three samples analyzed for each compound. Error bars represent standard deviation values for the absorbance values.

Series [3] concerns Enterococcus fecalis Strain MMH594 - NR31975. The series can be described thus: microbe, parasite or virus in culture. The class given is cell-based. To be noted: Enterococcus, Table 4; Wild-type E. fecalis NR 31975. The method, then:
The minimum inhibitory concentrations (MICs) of the compounds and control drugs were determined using the broth microdilution method, according to guidelines outlined by the Clinical and Laboratory Standards Institute (CLSI). Enterococci strains were grown aerobically overnight on tryptone soya agar plates at 37° C., afterwards a bacterial solution equivalent to 0.5 McFarland standard was prepared and diluted in tryptone soy broth (TSB) to achieve a bacterial concentration of about 5×10^5 CFU/mL and seeded in 96-well well plates. Compounds and control drugs were added in the first row of the 96-well plates and serially diluted along the plates. Plates were then incubated aerobically at 37° C. for 18-20 hours. MICs reported in Table 1 are the minimum concentration of the compounds/control drugs that could inhibit completely the visual growth of the bacteria.

The subject of series [4] is Lactobacillus gasseri EX336960VC03 HM-400. The series can be described thus: MIC against human normal gut microbiota. In kind it is cell-based. To be noted: Table 3, MRS broth, 5% CO2, 48 hours. The essentials:
(§1)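 Bifidobacterium and Bacteroides were pre-grown on BHIS agar (hemin, vitamin K, L-cysteine) anaerobically, Lactobacillus on MRS agar under 5% CO2, each 48 h at 37° C. Inocula of ~5×10^5 CFU/ml in BHIS or MRS broth were exposed to serial compound dilutions for 48 h under the same conditions.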

The test system of series [5] is Lactobacillus casei ATCC 334. The series can be described thus: MIC against human normal gut microbiota. In kind it is cell-based. Conditions: Lacticaseibacillus casei, ATCC334; Table 3; MRS broth, 5% CO2, 48 hours. The essentials: as §1
Series [6] deals with Bacteroides dorei CL02T12C06 HM-719. The series can be described thus: MIC against human normal gut microbiota. In kind it is cell-based. Conditions: Phocaeicola dorei; Table 3; BHIS broth, anaerobic, 48 hours; read-out: MIC. In a few lines:
as §1

In series [7] the test system is Bifidobacterium longum subsp. Longum 44B HM 845. The series can be described thus: MIC against human normal gut microbiota. The class given is cell-based. Conditions: Table 3, BHIS broth, anaerobic, 48 hours. In a few lines: as §1
Series [8] deals with Bacteroides fragilis CL07T00C01 HM-709. The series can be described thus: MIC against human normal gut microbiota. The class given is cell-based. Conditions: Table 3, BHIS broth, anaerobic, 48 hours, read-out: MIC. In a few lines:
as §1

Series [9] relates to Mutant-13 of Enterococcus fecalis NR 31975. The series can be described thus: microbe, parasite or virus in culture. In kind it is cell-based.
In series [10] the test system is Enterococcus faecalis S613 HM-334. The series can be described thus: MIC, broth microdilution (CLSI). The class given is cell-based. To be noted: Enterococcus faecalis, read-out: MIC.

≈ marks a conversion by molar mass, not a printed value. Where two headings read alike, the source gives them in different places.

On to `CC(C)=CC(=O)Nc1nnc(S(N)(=O)=O)s1` [CAI0016, 3-Methyl-N-(5-sulfamoyl-1,3,4-thiadiazol-2-yl)but-2-enamide], for which the MIC in series [1] was 4 µg/mL (≈ 15.2 µM); in series [3], 1 µg/mL (≈ 3.81 µM); in series [4], above 64 µg/mL; in [5], above 64 µg/mL; in series [6] it was above 64 µg/mL; in series [7] it was above 64 µg/mL. Also, the MIC is above 64 µg/mL in series [8]; 4 µg/mL (≈ 15.2 µM) in series [9]; 0.5 µg/mL (≈ 1.91 µM) in series [10] (S613HM334, Table 1, TSB); above 256 µg/mL in [10] (S613HM334, Table 6, TSB in presence of 4% human serum albumin); 0.25 µg/mL (≈ 0.953 µM) in series [10] (S613HM334, Table 7, TSB). Also, the “toxicity to VERO cells (percent viable cells, MTS)” value in [2] is “non-toxic”.
